Measured values as given in ChEMBL document CHEMBL1201862, “PubChem BioAssay data set” (2004).
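Briefly, cells in 96-well plates were exposed to five compound concentrations for 48 h, and endpoints were estimated by linear interpolation. GI50 = concentration required for 50% inhibition of growth.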 Activity calls are given as the source filed them. No stated cut-off is given here; in the data, active = GI50 up to about 1.1 µM and inactive = higher.

Key:
Assay in all cases: NCI-60 cell line screen, 48 h
IGROV-1 = system: IGROV-1
MOLT-4 = system: MOLT-4
HCC 2998 = system: HCC 2998
DMS-114 = system: DMS-114
SNB-78 = system: SNB-78
EKVX = system: EKVX
UO-31 = system: UO-31
K562 = system: K562
OVCAR-4 = system: OVCAR-4
OVCAR-3 = system: OVCAR-3
NCI-H23 = system: NCI-H23
HCT-116 = system: HCT-116
HL-60 = system: HL-60
NCI-H522 = system: NCI-H522
M19-MEL = system: M19-MEL
XF498 = system: XF498
SNB-19 = system: SNB-19
RPMI-8226 = system: RPMI-8226
A549 = system: A549
786-0 = system: 786-0
SR = system: SR
HT-29 = system: HT-29
SF-295 = system: SF-295
SK-MEL-2 = system: SK-MEL-2
HOP-92 = system: HOP-92
CAKI-1 = system: CAKI-1
Malme-3M = system: Malme-3M
DLD-1 = system: DLD-1
SK-OV-3 = system: SK-OV-3
SK-MEL-5 = system: SK-MEL-5
NCI-H226 = system: NCI-H226
KM12 = system: KM12
KM-20L2 = system: KM-20L2
ACHN = system: ACHN
TK-10 = system: TK-10
M14 = system: M14
SF-539 = system: SF-539
HCT-15 = system: HCT-15
RXF 393 = system: RXF 393
UACC-62 = system: UACC-62
NCI-H460 = system: NCI-H460
LOX IMVI = system: LOX IMVI
SF-268 = system: SF-268
HOP-18 = system: HOP-18
SK-MEL-28 = system: SK-MEL-28
SW-620 = system: SW-620
CCRF-CEM = system: CCRF-CEM
LXFL 529 = system: LXFL 529
OVCAR-8 = system: OVCAR-8
SN12C = system: SN12C
OVCAR-5 = system: OVCAR-5
HOP-62 = system: HOP-62
UACC-257 = system: UACC-257
RXF 631 = system: RXF 631
U-251 = system: U-251
A498 = system: A498
COLO 205 = system: COLO 205
DMS-273 = system: DMS-273
SNB-75 = system: SNB-75

Compound: COC(=O)C(CC=O)C(=O)C(=O)Nc1cccc(C(F)(F)F)c1 (centres undefined)
- GI50 (IGROV-1): > 100 µM (inactive)
- GI50 (MOLT-4): > 100 µM (inactive)
- GI50 (HCC 2998): > 100 µM (inactive)
- GI50 (DMS-114): > 100 µM (inactive)
- GI50 (SNB-78): > 100 µM (inactive)
- GI50 (EKVX): > 100 µM (inactive)
- GI50 (UO-31): > 100 µM (inactive)
- GI50 (K562): > 100 µM (inactive)
- GI50 (OVCAR-4): > 100 µM (inactive)
- GI50 (OVCAR-3): > 100 µM (inactive)
- GI50 (NCI-H23): > 100 µM (inactive)
- GI50 (HCT-116): > 100 µM (inactive)
- GI50 (HL-60): > 100 µM (inactive)
- GI50 (NCI-H522): > 100 µM (inactive)
- GI50 (M19-MEL): > 100 µM (inactive)
- GI50 (XF498): > 100 µM (inactive)
- GI50 (SNB-19): > 100 µM (inactive)
- GI50 (RPMI-8226): > 100 µM (inactive)
- GI50 (A549): > 100 µM (inactive)
- GI50 (786-0): > 100 µM (inactive)
- GI50 (SR): > 100 µM (inactive)
- GI50 (HT-29): > 100 µM (inactive)
- GI50 (SF-295): > 100 µM (inactive)
- GI50 (SK-MEL-2): > 100 µM (inactive)
- GI50 (HOP-92): > 100 µM (inactive)
- GI50 (CAKI-1): > 100 µM (inactive)
- GI50 (Malme-3M): > 100 µM (inactive)
- GI50 (DLD-1): > 100 µM (inactive)
- GI50 (SK-OV-3): > 100 µM (inactive)
- GI50 (SK-MEL-5): > 100 µM (inactive)
- GI50 (NCI-H226): > 100 µM (inactive)
- GI50 (KM12): > 100 µM (inactive)
- GI50 (KM-20L2): > 100 µM (inactive)
- GI50 (ACHN): > 100 µM (inactive)
- GI50 (TK-10): > 100 µM (inactive)
- GI50 (M14): > 100 µM (inactive)
- GI50 (SF-539): > 100 µM (inactive)
- GI50 (HCT-15): > 100 µM
- GI50 (RXF 393): > 100 µM (inactive)
- GI50 (UACC-62): > 100 µM (inactive)
- GI50 (NCI-H460): > 100 µM (inactive)
- GI50 (LOX IMVI): > 100 µM (inactive)
- GI50 (SF-268): > 100 µM (inactive)
- GI50 (HOP-18): > 100 µM (inactive)
- GI50 (SK-MEL-28): > 100 µM (inactive)
- GI50 (SW-620): > 100 µM (inactive)
- GI50 (CCRF-CEM): > 100 µM (inactive)
- GI50 (LXFL 529): > 100 µM (inactive)
- GI50 (OVCAR-8): > 100 µM (inactive)
- GI50 (SN12C): > 100 µM (inactive)
- GI50 (OVCAR-5): > 100 µM (inactive)
- GI50 (HOP-62): > 100 µM (inactive)
- GI50 (UACC-257): > 100 µM (inactive)
- GI50 (RXF 631): > 100 µM (inactive)
- GI50 (U-251): > 100 µM (inactive)

Compound: COc1cc2c(cc1O)[C@H](Cc1ccc(Oc3cc(C[C@H]4c5cc(OC)c(OC)cc5CCN4C)ccc3OC)cc1)NCC2
- GI50 (IGROV-1): 15.2 µM (inactive)
- GI50 (MOLT-4): 3.25 µM (inactive)
- GI50 (HCC 2998): 6.62 µM (inactive)
- GI50 (DMS-114): 18.7 µM (inactive)
- GI50 (A498): 13.7 µM (inactive)
- GI50 (COLO 205): 17.9 µM (inactive)
- GI50 (EKVX): > 10 µM (inactive)
- GI50 (UO-31): 8.75 µM (inactive)
- GI50 (K562): 2.21 µM (inactive)
- GI50 (OVCAR-4): 12.7 µM (inactive)
- GI50 (OVCAR-3): 10.5 µM (inactive)
- GI50 (NCI-H23): 11.9 µM (inactive)
- GI50 (HCT-116): 8.11 µM (inactive)
- GI50 (HL-60): 12.4 µM (inactive)
- GI50 (M19-MEL): 22.6 µM (inactive)
- GI50 (XF498): 11.2 µM (inactive)
- GI50 (SNB-19): 16.1 µM (inactive)
- GI50 (RPMI-8226): 12.9 µM (inactive)
- GI50 (A549): 17.9 µM (inactive)
- GI50 (786-0): 12.4 µM (inactive)
- GI50 (SR): 7.5 µM (inactive)
- GI50 (HT-29): 6.22 µM (inactive)
- GI50 (DMS-273): 19.5 µM (inactive)
- GI50 (SF-295): 11.9 µM (inactive)
- GI50 (SK-MEL-2): 17 µM (inactive)
- GI50 (HOP-92): 5.16 µM (inactive)
- GI50 (CAKI-1): 4.08 µM (inactive)
- GI50 (Malme-3M): 22.1 µM (inactive)
- GI50 (NCI-H226): 12.7 µM (inactive)
- GI50 (KM12): 12.9 µM (inactive)
- GI50 (KM-20L2): 10.1 µM (inactive)
- GI50 (ACHN): 11.4 µM (inactive)
- GI50 (TK-10): > 10 µM (inactive)
- GI50 (M14): 1.81 µM (inactive)
- GI50 (SF-539): 10.5 µM (inactive)
- GI50 (HCT-15): 7.98 µM
- GI50 (RXF 393): 3.77 µM (inactive)
- GI50 (UACC-62): 17.8 µM (inactive)
- GI50 (NCI-H460): 14.3 µM (inactive)
- GI50 (LOX IMVI): 8.95 µM (inactive)
- GI50 (SF-268): 11.1 µM (inactive)
- GI50 (HOP-18): 17.1 µM (inactive)
- GI50 (SK-MEL-28): 16.8 µM (inactive)
- GI50 (SW-620): 11.6 µM (inactive)
- GI50 (CCRF-CEM): 9.64 µM (inactive)
- GI50 (LXFL 529): 13.7 µM (inactive)
- GI50 (OVCAR-8): 14.5 µM (inactive)
- GI50 (SN12C): 14.8 µM (inactive)
- GI50 (SNB-75): 6.56 µM (inactive)
- GI50 (OVCAR-5): 18 µM (inactive)
- GI50 (HOP-62): > 10 µM (inactive)
- GI50 (UACC-257): 15.8 µM (inactive)
- GI50 (RXF 631): 15.5 µM (inactive)
- GI50 (U-251): 12 µM (inactive)
